Source: patent US6191124A, “Methanol derivatives for treatment of retroviral infections especially HIV infections” (priority 1997, dated 2001)
Read-outs that look alike come from different tables or passages of the source. Each block holds one molecule with its values, some of them ahead of it. Square brackets hold non-standard residues; d marks the D form. Peptide text beside a SMILES is read from it. * marks the point of attachment. Sta = CC(C)C[C@H](N)[C@@H](O)CC(=O)O; Isovaleryl = CC(C)CC(=O)*

Key:
HIV-1 protease [1] = target: T1, HIV-1 protease (Human immunodeficiency virus type 1 group M subtype B, UniProt P04585); test: HIV protease screening assay (fluorescently labeled biotinylated substrate, streptavidin beads), percent inhibition; type: biochemical
Procedure: The HIV protease screening assay is based on fluorescently labeled substrate which can be resolved from nonlabeled cleavage product using special beads coated with streptavidin. The substrate is biotinylated at the amino terminal arginine and fluorescently labeled with fluorescein isothiocynate (FITC) at the carboxyl terminal lysine. This assay has been employed to detect novel, nonpeptidic inhibitors of HIV-1 protease. Substrate (20 μl of 0.2 μM), sample (10 μl of desired concentration), and enzyme (10 μl of 0.1 μM) are added to a 96 well pandex plate. The assay is run in 0.1 M sodium acetate buffer at pH 5.5 in the presence of 1.0 M sodium chloride and 0.05% NP-40 with incubated in the dark for one hour at room temperature. Strepavidin coated polystyrene beads {40 μl of 0.1% (w/v)} are added and the plate is incubated in the dark for an additional half hour. The labeled cleavage product is separated from the unreacted substrate via filtration and is read on the Idexx screen machine. The data are analyzed by appropriate computer algorithms to ascertain percent inhibition values.

HIV-1 protease [2] = target: T1, HIV-1 protease; test: Determination of Ki values, HIV-1 protease; type: biochemical
Procedure: Determination of Ki values utilizes the same materials and equipment employed for percent inhibition studies. Two-fold serial dilutions are made for a given inhibitor from 2, 3 or 4 starting concentrations with a total of 24, 36 or 48 individual inhibitor concentrations. These dilutions are performed utilizing the BioMek robotics system. The assay consists of 10 μL or 40 nM HIV-1 protease, 10 μL of the various inhibitor concentrations, and 20 μL of 200 μM substrate (40 μL total). The reaction is allowed to proceed for 90 min at room temperature, terminated with 40 μL of avidin beads and processed (supra vide). An inhibitor with a known Ki is run in parallel to verify the validity of the assay. The data is processed utilizing a computer program employing a nonlinear least square analysis of the data to generate the Ki values.

HIV-I protease = settings: cited from earlier work
HIV = settings: cited from earlier work
[3] = humans; clinical; cited from earlier work
[4] = read-out: Protease Inhibition, % Inhibition
[5] = Table 4, read-out: Protease Inhibition, Ki
[6] = 1.1 μM (Table 6), read-out: PROTEASE INHIBITION
[7] = 3.3 μM (Table 6), read-out: PROTEASE INHIBITION
[8] = 3.3 μM (Table 5), read-out: % HIV Protease Inhibition
[9] = 10 μM (Table 5), read-out: % HIV Protease Inhibition
[10] = 1.1 μM (Table 8), read-out: PROTEASE INHIBITION
[11] = 3.3 μM (Table 8), read-out: PROTEASE INHIBITION
[12] = 10 μM (Table 8), read-out: PROTEASE INHIBITION
[13] = read-out: % Protease Inhibition
[14] = 1.1 μM (Table 7), read-out: PROTEASE INHIBITION
[15] = 3.3 μM (Table 7), read-out: PROTEASE INHIBITION
[16] = 10 μM (Table 7), read-out: PROTEASE INHIBITION
[17] = 10 μM (Table 3), read-out: % Protease Inhibition

SMILES: OC(CCc1ccccc1)c1cnc2sc3c(n12)CCCCC3 (stereo not drawn) [Example 15, 6,7,8,9-Tetrahydro-α-(2-phenylethyl)-5H-cyclohept[d]imidazo[2,1-b]thiazole-3-methanol]
inhibition at 1.1 µM (HIV-1 protease [1]; [4]): 57%
Ki (HIV-1 protease [2]; [5]): 57 ± 14 nM

SMILES: OC(CCCCc1ccccc1)c1cnc2sc3c(n12)CCCCC3 (stereo not drawn) [Example 16, 6,7,8,9-Tetrahydro-α-(4-phenylbutyl)-5-H-cyclohept[d]imidazo[2,1-b]thiazole-3-methanol]
inhibition at 1.1 µM (HIV-1 protease [1]; [4]): 54%
Ki (HIV-1 protease [2]; [5]): 227 ± 42 nM

SMILES: OC(CCc1ccccc1)c1cnc2sc3c(n12)CCCC3 (stereo not drawn) [Example 14, 5,6,7,8-Tetrahydro-α-(2-phenylethyl)imidazo[2,1-b]benzothiazole-3-methanol]
inhibition at 1.1 µM (HIV-1 protease [1]; [4]): 73%
Ki (HIV-1 protease [2]; [5]): 68 ± 14 nM

SMILES: CC(C)CC(=O)N[C@H](C(=O)N[C@H](C(=O)N[C@@H](CC(C)C)[C@@H](O)CC(=O)N[C@@H](C)C(=O)N[C@@H](CC(C)C)[C@@H](O)CC(=O)O)C(C)C)C(C)C [Pepstatin A] (Isovaleryl-VV[Sta]A[Sta]-OH)
inhibition of HIV-I protease (HIV-I protease): inhibitor of HIV-I protease

SMILES: Cc1csc2ncc(C(O)CC(C)c3ccccc3)n12 (stereo not drawn) [Example 6, 3-Methyl-α-(2-phenylpropyl)imidazo[2,1-b]thiazole-5-methanol]
inhibition at 10 µM (HIV-1 protease [1]; 10 μM (Table 2), read-out: % Protease Inhibition): 51%
% Protease Inhibition (HIV-1 protease [1]; 1.1-1.3 μM (Table 2)): < 10%
% Protease Inhibition (HIV-1 protease [1]; 3.3-3.7 μM (Table 2)): < 10%

SMILES: OC(CCc1ccccc1)c1cnc2sc3ccccc3n12 (stereo not drawn) [Example 18, α-(2-phenylethyl)-imidazo[2,1-b]benzothiazole-3-methanol]
inhibition at 3.3 µM (HIV-1 protease [1]; [8]): 28%
inhibition at 10 µM (HIV-1 protease [1]; [9]): 94%

SMILES: Cc1sc2ncc(C(O)/C=C/c3ccccc3)n2c1C (stereo not drawn) [Example 12, 2,3-Dimethyl-α-(2-phenylethenyl)imidazo[2,1-b]thiazole-5-methanol]
% Protease Inhibition (HIV-1 protease [1]; 1.1-1.3 μM (Table 1)): 63%
% Protease Inhibition (HIV-1 protease [1]; 3.3-3.7 μM (Table 1)): 103%
inhibition at 10 µM (HIV-1 protease [1]; [13]): 110%
Ki (HIV-1 protease [2]; Table 1, read-out: Ki): 567 ± 282 nM

SMILES: Cc1sc2ncc(C(O)CCCc3ccccc3)n2c1C (stereo not drawn) [Example 3, 2,3-Dimethyl-α-(3-phenylpropyl)imidazo-[2,1-b]thiazole-5-methanol]
% Protease Inhibition (HIV-1 protease [1]; 1.1-1.3 μM (Table 1)): 16%
% Protease Inhibition (HIV-1 protease [1]; 3.3-3.7 μM (Table 1)): 72%
inhibition at 10 µM (HIV-1 protease [1]; [13]): 115%
Ki (HIV-1 protease [2]; Table 1, read-out: Ki): 246 nM

SMILES: Cc1csc2ncc(C(C)(O)/C=C/c3ccccc3)n12 (stereo not drawn) [Example 5, α,3-Dimethyl-α-(E-2-phenyl-E-ethenyl)imidazo[2,1-b]thiazole-5-methanol]
inhibition at 10 µM (HIV-1 protease [1]; [17]): < 10%
inhibition at 30 µM (HIV-1 protease [1]; 30 μM (Table 3 footnote)): 48.9%
% Protease Inhibition (HIV-1 protease [1]; 1-1.2 μM (Table 3)): < 10%
% Protease Inhibition (HIV-1 protease [1]; 3.3-3.7 μM (Table 3)): < 10%

SMILES: Cc1sc2ncc(C(O)Cc3ccccc3)n2c1C (stereo not drawn) [Example 2, 2,3-Dimethyl-α-(2-phenylmethyl)imidazo-[2,1-b]thiazole-5-methanol]
inhibition at 10 µM (HIV-1 protease [1]; 10 μM (Table 1), read-out: % Protease Inhibition): 86%
% Protease Inhibition (HIV-1 protease [1]; 1.1-1.3 μM (Table 1)): < 10%
% Protease Inhibition (HIV-1 protease [1]; 3.3-3.7 μM (Table 1)): 27%

SMILES: OC(CCc1ccccc1)c1cnc2sc3c(n12)CCCCCC3 (stereo not drawn) [Example 17, 5,6,7,8,9,10-Hexahydro-α-(2-phenylethyl)cyclooct[d]imidazo-[2,1-b]thiazole-3-methanol]
inhibition at 1.1 µM (HIV-1 protease [1]; [4]): 62%
Ki (HIV-1 protease [2]; [5]): 72 ± 26 nM

SMILES: Nc1ccn([C@H]2CC[C@@H](CO)O2)c(=O)n1 [ddC]
activity against HIV in vitro (HIV): potent activity against HIV in vitro
limiting toxicity [3]: peripheral neuropathy which is reversible at low doses

SMILES: Cc1csc2ncc(C(C)(O)CCc3ccccc3)n12 (stereo not drawn) [Example 7, α,3-Dimethyl-α-(2-phenylethyl)imidazo[2,1-b]thiazole-5-methanol]
inhibition at 10 µM (HIV-1 protease [1]; [17]): 14.5%
% Protease Inhibition (HIV-1 protease [1]; 1-1.2 μM (Table 3)): < 10%
% Protease Inhibition (HIV-1 protease [1]; 3.3-3.7 μM (Table 3)): < 10%

Other lines, results leading:

inhibition at 1.1 µM (HIV-1 protease [1]; [6]): 58%
inhibition at 3.3 µM (HIV-1 protease [1]; [7]): 99%
SMILES: OC(CCc1cccc(F)c1F)c1cnc2sc3c(n12)CCCCC3 (stereo not drawn) [Example 34, α-[2-(2,3-Difluorophenyl)ethyl]-6,7,8,9-tetrahydro-5H-cyclohept[d]imidazothiazol-3-methanol]

inhibition at 3.3 µM (HIV-1 protease [1]; [8]): 59%
inhibition at 10 µM (HIV-1 protease [1]; [9]): 92%
SMILES: Cc1ccc2c(c1)sc1ncc(C(O)CCc3ccccc3)n12 (stereo not drawn) [Example 19, 7-Methyl-α-(2-phenylethyl)imidazo[2,1-b]benzothiazole-3-methanol]

inhibition at 1.1 µM (HIV-1 protease [1]; [6]): 24%
inhibition at 3.3 µM (HIV-1 protease [1]; [7]): 70%
SMILES: CN(C)c1ccc(CCC(O)c2cnc3sc4c(n23)CCCCC4)cc1 (stereo not shown) [Example 29]

inhibition at 3.3 µM (HIV-1 protease [1]; [8]): 80%
inhibition at 10 µM (HIV-1 protease [1]; [9]): 93%
SMILES: COc1ccc2c(c1)sc1ncc(C(O)CCc3ccccc3)n12 (stereo not drawn) [Example 21, 7-Methoxy-α-(2-phenylethyl)imidazo[2,1-b]benzothiazole-3-methanol]

inhibition at 1.1 µM (HIV-1 protease [1]; [10]): < 10%
inhibition at 3.3 µM (HIV-1 protease [1]; [11]): 52%
inhibition at 10 µM (HIV-1 protease [1]; [12]): 97%
SMILES: Cc1ccc(S(=O)(=O)Nc2ccccc2CCC(O)c2cnc3sc(C)c(C)n23)cc1 (stereo not shown) [Example 33]

inhibition at 3.3 µM (HIV-1 protease [1]; 3.3 μM (Table 9), read-out: PROTEASE INHIBITION): < 10%
inhibition at 10 µM (HIV-1 protease [1]; 10 μM (Table 9), read-out: PROTEASE INHIBITION): 15%
SMILES: Cc1ccc(S(=O)(=O)Nc2cccc(/C=C/C(O)c3cnc4sc(C)c(C)n34)c2)cc1 (stereo not shown) [Example 32]

inhibition at 1.1 µM (HIV-1 protease [1]; [6]): 4.8%
inhibition at 3.3 µM (HIV-1 protease [1]; [7]): 80%
SMILES: OC(CCc1cccc(Br)c1)c1cnc2sc3c(n12)CCCCC3 (stereo not drawn) [Example 26, α-[2-(3-Bromophenyl)ethyl]-6,7,8,9-tetrahydro-5H-cyclohept[d]imidazo-[2,1-b]thiazol-3-methanol]

inhibition at 1.1 µM (HIV-1 protease [1]; [6]): 55%
inhibition at 3.3 µM (HIV-1 protease [1]; [7]): 98%
SMILES: OC(CCc1cccc(Cl)c1)c1cnc2sc3c(n12)CCCCC3 (stereo not drawn) [Example 27, α-[2-(3-Chlorophenyl)ethyl]-6,7,8,9-tetrahydro-5H-cyclohept[d]imidazo[2,1-b]thiazol-3-methanol]

inhibition at 1.1 µM (HIV-1 protease [1]; [6]): 51%
inhibition at 3.3 µM (HIV-1 protease [1]; [7]): 80%
SMILES: OC(CCc1ccc2ccccc2c1)c1cnc2sc3c(n12)CCCCC3 (stereo not drawn) [Example 37, α-[2-(2-Naphthalenyl)ethyl]-6,7,8,9-tetrahydro-5H-cyclohept[d]imidazo[2,1-b]thiazol-3-methanol]

inhibition at 1.1 µM (HIV-1 protease [1]; [14]): 12%
inhibition at 3.3 µM (HIV-1 protease [1]; [15]): 60%
inhibition at 10 µM (HIV-1 protease [1]; [16]): 98%
SMILES: OC(/C=C/c1ccco1)c1cnc2sc3c(n12)CCCCC3 (stereo not drawn) [Example 38, α-[2-(2-Furanyl)ethenyl]-6,7,8,9-tetrahydro-5H-cyclohept[d]imidazo[2,1-b]thiazol-3-methanol]

inhibition at 1.1 µM (HIV-1 protease [1]; [6]): 54%
inhibition at 3.3 µM (HIV-1 protease [1]; [7]): 85%
SMILES: OC(CCc1ccco1)c1cnc2sc3c(n12)CCCCC3 (stereo not drawn) [Example 39, α-[2-(2-Furanyl)ethyl]-6,7,8,9-tetrahydro-5H-cyclohept[d]imidazo[2,1-b]thiazol-3-methanol]

inhibition at 1.1 µM (HIV-1 protease [1]; [14]): 24%
inhibition at 3.3 µM (HIV-1 protease [1]; [15]): 57%
inhibition at 10 µM (HIV-1 protease [1]; [16]): 66%
SMILES: OC(/C=C/c1cccc(F)c1)c1cnc2sc3c(n12)CCCCC3 (stereo not drawn) [Example 22, α-[2-(3-Fluorophenyl)ethenyl]-6,7,8,9-tetrahydro-5H-imidazo[2,1-b]thiazole-3-methanol]

inhibition at 1.1 µM (HIV-1 protease [1]; [10]): 15%
inhibition at 3.3 µM (HIV-1 protease [1]; [11]): 68%
inhibition at 10 µM (HIV-1 protease [1]; [12]): 98%
SMILES: Cc1ccc(S(=O)(=O)Nc2cccc(CCC(O)c3cnc4sc(C)c(C)n34)c2)cc1 (stereo not shown) [Example 31]
